From US20230272012A1, “PEPTIDES AND METHODS OF USE” (REALTA LIFE SCIENCES, INC., priority 2020, published 2023)
“Also recorded” adds a separate entry of the source. Bridge positions count the residues as written; N and C are the ends. Square brackets hold non-standard residues; d marks the D form. Peptide text beside a SMILES is read from it. S5 = C=CCCC[C@](C)(N)C(=O)O; Sar = CNCC(=O)O

Columns and labels:
human neutrophils = assay: NETosis assay (free DNA, PicoGreen); format: cell-based; details: peptide 2 mM; neutrophils stimulated with PMA and H2O2
Experimental: Free DNA as a marker for NET formation was measured by PicoGreen as previously described. Briefly, 2.0×10^6 human neutrophils in 96-well plates were stimulated with 12 nM PMA and 0.05% H2O2 in RPMI with or without the indicated peptide variants (2 mM) for 2.5 hr in a 37° C. humified incubator supplemented with 5% CO2, allowing NETosis to occur. Neutrophils in RPMI alone served as a negative control. Fifty units of […] (Fisher) were added to each well to allow for digestion of released extracellular DNA for 10 min at 37° C. The preparation was then aliquoted into an adjacent well and mixed 1:1 with prepared PICO green reagent (Fisher). The fluorescence was then quantified on a BioTek microplate reader at excitation 485 nm/emission 528 nm.

PD-1 = PD-1 (Homo sapiens, UniProt Q15116); assay: Peptide binding to immobilized PD-1, ELISA plate-based assay; details: increasing amounts of peptide
Experimental: RLS-0117 was allowed to bind to immobilized CTLA-4, PD-1, PD-L1 on the surface of the plate. Bound C1q served as a positive and control for peptide binding. Increasing amounts of peptides were added to the plates followed by a rabbit polyclonal antibody that recognizes the peptides and then a secondary anti-rabbit antibody conjugated with HRP. The plate was then developed by addition of TMB as the substrate for the colorimetric assay.
The inventors further evaluated if RLS-0117 could bind to the well characterized checkpoint inhibitor, cytotoxic T-lymphocyte associated protein 4 (CTLA-4 aka CD152). […] Therefore, the pharmaceutical inhibition of CTLA-4 or its ligand has been considered a promising strategy by many cancer researchers and is a therapeutic target in cancer immunotherapy. To ascertain the ability of RLS-0117 to bind CTLA-4, a binding assay was performed in which these proteins were coated on a microtiter plate followed by incubation with increasing amounts of either […]. Plates coated with PD-1, PD-L1 and C1q served as a positive control […].

Sequence of PD-1 (Q15116 25-288): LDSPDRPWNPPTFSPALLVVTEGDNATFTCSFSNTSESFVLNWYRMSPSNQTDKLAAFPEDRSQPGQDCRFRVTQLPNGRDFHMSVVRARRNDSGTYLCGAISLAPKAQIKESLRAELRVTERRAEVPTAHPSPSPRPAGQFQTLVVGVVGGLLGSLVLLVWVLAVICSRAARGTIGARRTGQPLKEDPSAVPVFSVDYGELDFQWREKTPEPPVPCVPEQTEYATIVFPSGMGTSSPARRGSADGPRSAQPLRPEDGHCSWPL

`CC[C@H](C)[C@H](N)C(=O)N[C@@H](C)C(=O)N[C@@H](CC(C)C)C(=O)N[C@H](C(=O)N[C@@H](CC(C)C)C(=O)N[C@@H](CCC(=O)O)C(=O)N1CCC[C@H]1C(=O)N(C)CC(=O)N[C@@H](CS)C(=O)N[C@@]1(C)CCCC=CCCC[C@@](C)(C(=O)N[C@@H](C)C(=O)O)NC(=O)[C@H](CCCNC(=N)N)NC(=O)[C@H](CCC(=O)O)NC(=O)[C@H](CCC(N)=O)NC1=O)[C@@H](C)CC` [PA-0117, IALILEP(Sar)CS5QERS5A] (H-IALILEP[Sar]C[S5]QER[S5]A-OH; staple 10-14) was tested, and the “reduction of free DNA (marker of NETosis)” value (human neutrophils) was “did not reduce levels of free DNA; also recorded: did not show a reduction in free DNA” and the “binding to PD-1” value (PD-1) was “dose-dependent binding”.
